Our source for the IC50 values is patent US11976069B2, “Inhibitors of histone deacetylase useful for the treatment or prevention of HIV infection” (Merck Sharp & Dohme LLC, priority 2019, dated 2024).

Where two headings read alike, the source gives them in different places.

Holding throughout (format): biochemical
Experiment [1] deals with T1, HDAC3/SMRT heterodimer (Homo sapiens, UniProt O15379).
T1 construct: FLAG (C)
The experiment is described as follows: HDAC3/SMRT inhibition, modified Fluor-de-Lys assay. As to conditions: 3 h pre-incubation, 0.3 nM enzyme, 20 μM substrate BML-KI104, read-out: HDAC-3 IC50. How it is done:
(§1) Human HDAC Enzyme Inhibitor FLUOR-DE-LYS Assay Materials
(§2) Recombinant human HDAC1, HDAC2, and HDAC3/SMRT heterodimer were prepared by Merck Research Laboratories. […] The eluted protein was then passed over an anti-HDAC1 immunoaffinity column to remove any complexes containing HDAC1. […]
(§3) The histone deacetylase activities of HDAC1, HDAC2, HDAC3, HDAC6, and HDAC8 were measured in modified Fluor-de-Lys assays in 384-well format. In this assay, HDAC enzymes are initially incubated with an ε-acetyl (or -trifluoroacetyl)-L-lysine-containing substrate with a C-terminal amide having aminomethylcoumarin as the amine component. HDACs cleave the ε-acetyl group, rendering the resulting product susceptible to AMC cleavage by trypsin. The released AMC is then detected by its fluorescence.
(§4) The HDAC 1, 2 assays employed buffer A, which contained 20 mM HEPES, pH 8.0, 1 mM MgCl2, 137 mM NaCl, 2.7 mM KCl, 0.05% BSA. The HDAC3/SMRT assay employed buffer B, consisting of 20 mM HEPES, pH 8.0, 1 mM MgCl2, 50 mM NaCl, 2.7 mM KCl, 0.05% BSA, 0.005% Tween 20, and 10 μM IP4. The HDAC6 assay employed buffer C, consisting of 20 mM HEPES, pH 8.0, 1 mM MgCl2, 137 mM NaCl, 2.7 mM KCl, 0.5 mM TCEP (Calbiochem) and 0.05% BSA. The HDAC8 assay employed buffer D, consisting of 20 mM HEPES, pH 8.0, 1 mM MgCl2, 100 mM NaCl, 20 mM KCl, 0.1% n-octyl-β-D-glucoside (Anatrace, Maumee, Ohio) and 0.05% BSA. All steps were performed at room temperature (23° C.). The assay was performed by pre-incubating serial dilutions of test compounds with the target HDAC prior to initiation with substrate. Each compound was titrated in a 10-point dose response, using a 1:3 fold dilution scheme, with 0.15 ul of solution added by ECHO555 to the plate, followed by the addition of 20 μl of the appropriate HDAC isoform diluted in appropriate assay buffer. […] Final conditions used for each assay were: 1. HDAC 1, 0.3 nM total enzyme, 20 μM substrate BML-KI104; 2. HDAC 2, 1.5 nM total enzyme, 40 μM substrate BML-KI104; 3. HDAC 3/SMRT, 0.3 nM total enzyme, 20 μM substrate BML-KI104; 4. HDAC 6, 1.3 nM total enzyme, 2.5 μM substrate BML-KI104; 5. HDAC 8, 1.3 nM total enzyme, 200 μM substrate BML-KI178; the final high dose of test compound was 30 μM. For potent compounds, 900 nM was used as the final high dose. The reactions were stopped and developed by addition of 30 ul of HDAC developer solution containing a saturating level of HDAC inhibitor as follows: 1.

The target in experiment [2] is T2, HDAC2 (Homo sapiens, UniProt Q92769).
T2 construct: Full length human HDAC2-FLAG was expressed in baculovirus infected Sf9 cells; FLAG (C); host or cells: baculovirus infected Sf9 cells
T2 sequence (Q92769 whole entry): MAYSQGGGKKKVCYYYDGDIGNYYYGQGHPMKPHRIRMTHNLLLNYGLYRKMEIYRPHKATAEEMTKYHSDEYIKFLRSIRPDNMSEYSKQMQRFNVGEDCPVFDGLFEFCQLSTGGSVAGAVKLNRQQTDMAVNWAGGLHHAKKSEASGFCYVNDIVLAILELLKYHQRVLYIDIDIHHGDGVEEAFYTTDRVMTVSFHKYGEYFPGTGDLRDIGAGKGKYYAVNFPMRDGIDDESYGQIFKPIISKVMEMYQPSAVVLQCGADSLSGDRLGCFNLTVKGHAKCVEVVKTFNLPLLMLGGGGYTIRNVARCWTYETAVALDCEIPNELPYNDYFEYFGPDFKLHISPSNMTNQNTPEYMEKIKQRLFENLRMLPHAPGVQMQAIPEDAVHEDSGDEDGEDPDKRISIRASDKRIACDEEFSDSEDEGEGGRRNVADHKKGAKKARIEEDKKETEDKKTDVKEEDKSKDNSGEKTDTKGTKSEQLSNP
Briefly: HDAC2 inhibition, modified Fluor-de-Lys assay. As to conditions: 3 h pre-incubation, […] enzyme, 40 μM substrate BML-KI104; read-out: HDAC-2 IC50. How it is done:
as §1, §2, §3, §4

Experiment [3] has as its target T3, HDAC1 (Homo sapiens, UniProt Q13547).
T3 construct: FLAG (C)
Briefly: HDAC1 inhibition, modified Fluor-de-Lys assay. As to conditions: 3 h pre-incubation, 0.3 nM enzyme, 20 μM substrate BML-KI104; read-out: HDAC-1 IC50. On the procedure:
as §1, §2, §3, §4

Experiment [4] addresses T4, HDAC8 (Homo sapiens, UniProt Q9BY41).
T4 construct: purchased Enzo Life Sciences (Farmingdale, N.Y.) BMIL-SE145-0100
T4 sequence (Q9BY41 1-377): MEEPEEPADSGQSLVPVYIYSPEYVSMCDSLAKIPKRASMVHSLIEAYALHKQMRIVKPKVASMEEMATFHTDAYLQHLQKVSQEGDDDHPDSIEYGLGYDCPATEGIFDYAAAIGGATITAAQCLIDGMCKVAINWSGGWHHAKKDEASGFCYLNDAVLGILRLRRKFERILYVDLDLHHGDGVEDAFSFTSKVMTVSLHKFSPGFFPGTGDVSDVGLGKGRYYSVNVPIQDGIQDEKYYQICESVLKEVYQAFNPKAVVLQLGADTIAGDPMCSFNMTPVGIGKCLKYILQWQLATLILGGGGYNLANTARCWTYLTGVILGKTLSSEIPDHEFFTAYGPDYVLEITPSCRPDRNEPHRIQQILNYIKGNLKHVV
The experiment is described as follows: HDAC8 inhibition, modified Fluor-de-Lys assay. Conditions: 3 h pre-incubation, 200 μM substrate BML-KI178, read-out: HDAC-8 IC50.
Source text: as §1
Recombinant human HDAC8 (catalog number BMIL-SE145-0100) and HDAC10 (catalog number BML-SE559-0050) enzymes, HIDAC substrates BML-KI104 and BML-K1178, and HLDAC developer solutions BMIL-KI105 and BML-K1176 were purchased from Enzo Life Sciences (Farmingdale, N.Y.). Recombinant human HDAC5 and HDAC11 were purchased from BPS Bioscience (San Diego, Calif.)(catalog numbers 50045 and 50021). Substrate Boc-Lys(TFA)-AMC was obtained from Bachem (Bupendorf, Switzerland) (catalog number 1-1985). HDAC inhibitor suberoylanilide hydroxamic acid (SAHA) was obtained from Indofine (Hillsborough Township, N.J.) and trichostatin A (TSA) was obtained from Sigma-Aldrich (St. Louis, Mo.). […] HEPES pH 8.0 was obtained from Boston BioProducts (Ashland, Mass.), Tween-20 from Fisher Scientific (Hampton, N.H.) (catalog number BP337), TCEP from Calbiochem and 7.5% bovine serum albumin (BSA) from Life Technologies (Carlsbad, Calif.) (catalog number 15260037). 384-well, black assay plates were obtained from Corning (Corning, N.Y.) (catalog number 3575).
as §3, §4

T1 sequence (O15379 whole entry): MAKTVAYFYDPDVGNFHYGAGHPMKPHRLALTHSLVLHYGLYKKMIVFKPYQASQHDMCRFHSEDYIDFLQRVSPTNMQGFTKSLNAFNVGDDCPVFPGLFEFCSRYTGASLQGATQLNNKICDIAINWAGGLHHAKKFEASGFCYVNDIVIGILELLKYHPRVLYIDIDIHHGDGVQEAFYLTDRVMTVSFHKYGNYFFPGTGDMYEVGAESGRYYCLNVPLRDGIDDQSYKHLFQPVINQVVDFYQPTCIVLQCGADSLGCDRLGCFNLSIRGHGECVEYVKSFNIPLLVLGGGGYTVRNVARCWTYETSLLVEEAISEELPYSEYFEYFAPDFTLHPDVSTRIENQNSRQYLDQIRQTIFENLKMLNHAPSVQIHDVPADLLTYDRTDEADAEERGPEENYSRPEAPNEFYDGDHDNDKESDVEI
T1 sequence (Q9Y618 1-899 partner limits assumed): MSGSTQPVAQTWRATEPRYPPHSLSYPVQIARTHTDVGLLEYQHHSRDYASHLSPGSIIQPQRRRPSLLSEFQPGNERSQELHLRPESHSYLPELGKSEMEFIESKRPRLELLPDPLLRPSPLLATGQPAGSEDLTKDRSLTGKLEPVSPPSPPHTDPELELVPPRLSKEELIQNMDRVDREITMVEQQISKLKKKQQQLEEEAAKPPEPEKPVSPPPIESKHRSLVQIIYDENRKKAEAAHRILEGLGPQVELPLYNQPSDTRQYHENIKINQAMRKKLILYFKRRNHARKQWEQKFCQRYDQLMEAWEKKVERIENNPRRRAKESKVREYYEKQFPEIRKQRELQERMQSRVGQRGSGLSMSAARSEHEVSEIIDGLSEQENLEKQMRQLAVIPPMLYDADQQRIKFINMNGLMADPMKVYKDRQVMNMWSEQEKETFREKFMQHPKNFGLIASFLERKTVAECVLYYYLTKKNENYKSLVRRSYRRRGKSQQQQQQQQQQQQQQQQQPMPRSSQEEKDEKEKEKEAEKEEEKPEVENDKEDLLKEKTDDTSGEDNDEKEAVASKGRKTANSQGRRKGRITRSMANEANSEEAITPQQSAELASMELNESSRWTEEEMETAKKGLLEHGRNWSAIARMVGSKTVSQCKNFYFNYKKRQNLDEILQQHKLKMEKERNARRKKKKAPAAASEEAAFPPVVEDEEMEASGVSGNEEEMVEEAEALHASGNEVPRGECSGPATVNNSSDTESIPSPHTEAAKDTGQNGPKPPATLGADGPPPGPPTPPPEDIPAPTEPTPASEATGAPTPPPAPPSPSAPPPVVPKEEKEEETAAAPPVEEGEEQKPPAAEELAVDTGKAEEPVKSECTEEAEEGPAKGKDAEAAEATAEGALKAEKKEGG
T3 sequence (Q13547 whole entry): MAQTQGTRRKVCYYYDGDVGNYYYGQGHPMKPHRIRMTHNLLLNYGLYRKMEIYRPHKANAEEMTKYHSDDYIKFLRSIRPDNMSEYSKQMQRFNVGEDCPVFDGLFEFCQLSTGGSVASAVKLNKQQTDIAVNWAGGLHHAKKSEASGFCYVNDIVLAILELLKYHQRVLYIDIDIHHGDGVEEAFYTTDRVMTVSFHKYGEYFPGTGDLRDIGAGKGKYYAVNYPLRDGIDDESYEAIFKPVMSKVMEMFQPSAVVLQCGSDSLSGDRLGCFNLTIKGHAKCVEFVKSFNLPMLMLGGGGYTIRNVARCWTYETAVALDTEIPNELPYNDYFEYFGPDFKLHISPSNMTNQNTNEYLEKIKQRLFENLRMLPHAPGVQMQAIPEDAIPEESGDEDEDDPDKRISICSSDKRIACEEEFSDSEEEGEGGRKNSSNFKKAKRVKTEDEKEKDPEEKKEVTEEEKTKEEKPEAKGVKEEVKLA

One may read the IC50 as the concentration that gives 50% inhibition. As to `CCC(=O)CCCCC[C@H](NC(=O)[C@H]1CC12CCN(CC)CC2)c1[nH]c2nc1C(=O)NCCC/C=C\c1cccc-2c1` [Compound 14, (1S)-6-ethyl-N-{(1S)-7-oxo-1-[(11Z)-6-oxo-3,7,18-triazatricyclo[11.3.1.1~2,5~]octadeca-1(17),2(18),4,11,13,15-hexaen-4-yl]nonyl}-6-azaspiro[2.5]octane-1-carboxamide], the IC50 in experiment [1] is 113 nM; in experiment [2] it was 572 nM; in experiment [3] it was 133 nM; in experiment [4] (1.3 nM enzyme), > 900 nM.

For `CCC(=O)CCCCC[C@@H]1NC(=O)[C@H]2CC23CCN(CCCCCCCCn2ccc4cc(c(OC)cc4c2=O)-c2cnc1[nH]2)CC3` [Compound 5, (1^1S,4S)-6^7-methoxy-4-(6-oxooctyl)-6^1,6^2-dihydro-5^1H-3-aza-6(6,2)-isoquinolina-15(4,1)-piperidina-5(2,5)-imidazola-1(1,2)-cyclopropanapentadecaphane-6^1,2-dione], the results for the IC50 in experiment [1], in experiment [2] and in experiment [3] were 0.13 nM, 0.31 nM and 0.11 nM, respectively.

`CCC(=O)CCCCC[C@@H]1NC(=O)[C@H]2CC23CCN(CCCOCCCn2ccc4cc(ccc4c2=O)-c2cnc1[nH]2)CC3` [Compound 12, (3S,6S)-6-(6-oxooctyl)-22-oxa-5,8,18,26,33-pentaazahexacyclo[24.2.2.1˜7,10˜0.1˜11,15˜0.1˜14,18˜0.0˜1,3˜]tritriaconta-7,9,11(32),12,14,16-hexaene-4,31-dione]: the IC50 in experiment [1] came to 0.32 nM; in experiment [2], 8.5 nM; in experiment [3] it was 0.33 nM; in experiment [4] ([…] enzyme) it was 808 nM.

Turning to `CCC(=O)CCCCC[C@H](NC(=O)[C@H]1CC12CCN(CC)CC2)c1[nH]c2nc1C(=O)NCCC/C=C/c1cccc-2c1` [Compound 15, (1S)-6-ethyl-N-{(1S)-7-oxo-1-[(11E)-6-oxo-3,7,18-triazatricyclo[11.3.1.1~2,5~]octadeca-1(17),2(18),4,11,13,15-hexaen-4-yl]nonyl}-6-azaspiro[2.5]octane-1-carboxamide], the IC50 in experiment [1] is 18 nM; in experiment [2], 223 nM; in experiment [3], 21 nM; in experiment [4] (1.3 nM enzyme), > 900 nM.

In the case of “(11S,4S)-4-(6-oxooctyl)-61,62-dihydro-3-aza-5(2,5)-oxazola-6(6,1)-quinolina-12(4,1)-piperidina-1(1,2)-cyclopropanadodecaphane-62,2-dione [Compound 8]”, the 50% inhibitory concentration (IC50) was 130 nM in experiment [1], 287 nM in experiment [2], 42 nM in experiment [3] and > 900 nM in experiment [4] ([…] enzyme).

In the case of `CCC(=O)CCCCCC1NC(=O)C2CC2N2CCC(CCCCCn3c(=O)ccc4cc(ccc43)-c3cnc1o3)CC2` [Compound 7, (11S,4S)-4-(6-oxooctyl)-61,62-dihydro-3-aza-5(2,5)-oxazola-6(6,1)-quinolina-12(4,1)-piperidina-1(1,2)-cyclopropanadodecaphane-62,2-dione], the IC50 was 57 nM in experiment [1], 260 nM in experiment [2], 16 nM in experiment [3] and > 900 nM in experiment [4] ([…] enzyme).
